In general, EC50 refers to the midpoint of the concentration-response curve.

Several values for one entry are separate records, joined by “and”; a condition that tells them apart may be missing. Equal entries are not always repeated. Where two headings read alike, the source gives them in different places.

The text below walks through data of publication PMC6868923 (EXCLI Journal, 2019).

The test system of series [1] is HepG2.2.15 and Vero cells.
Another series has as its system Hepatitis B virus (HBV). Put plainly: microbe, parasite or virus in culture. The following applies: read-out: EC50 HBV. The format is cell-based.
The test system of series [2] is poliovirus type 1 Sabin strain (PV-1). Put plainly: microbe, parasite or virus in culture. The following applies: for EC50 / inhibition at 0.0001 µM / inhibition at 0.001 µM / inhibition at 0.01 µM / inhibition at 0.1 µM / inhibition at 1 µM: Enterovirus C, Vero; for EC50: 24 h, read-out: EC50 PV-1; for inhibition at 0.0001 µM / inhibition at 0.001 µM / inhibition at 0.01 µM / inhibition at 0.1 µM / inhibition at 1 µM: N 3, read-out: Inhibition percent relative to control, Polio virus (Median). The format is cell-based.

Series [3] in a line: in vitro. The settings on record: human.
Series [4] can be described thus: in vitro. The following applies: human (HepG2.2.15); African green monkey (Vero).
The test system of series [5] is Herpes simplex type 1 F strain (HSV-1). Briefly: microbe, parasite or virus in culture. The format is cell-based, Herpes Simplex Virus type 1. The settings on record: for EC50 / inhibition at 10 µM / inhibition at 0.0001 µM / inhibition at 0.001 µM / inhibition at 0.01 µM / inhibition at 0.1 µM / inhibition at 1 µM: Human alphaherpesvirus 1, Vero; for EC50: 48 h, read-out: EC50 HSV-1; for inhibition at 10 µM: read-out: Inhibitory effect against HSV-1; for inhibition at 0.0001 µM / inhibition at 0.001 µM / inhibition at 0.01 µM / inhibition at 0.1 µM / inhibition at 1 µM: N 3, read-out: Inhibition percent relative to control, Herpes simplex virus (Median).

[6] abbreviates: Hepatitis B virus, HepG2.2.15, 72 h.

Regarding 24,25-dehydropollinastanol, the CC50 (in the series with HepG2.2.15 cells; in series [1]) was over 100 µM each time.

Turning to `CC(C)CCC[C@@H](C)[C@H]1CC[C@H]2[C@@H]3CC[C@H]4C[C@@H](O)CC[C@]4(C)[C@H]3CC[C@]12C` [5-α-cholestan-3-β-ol], the CC50 (with HepG2.2.15 cells; in series [1]) was over 100 µM each time.

In the case of `CC(C)CCC[C@@H](C)[C@H]1CC[C@H]2C3=CC[C@H]4C[C@@H](O)CC[C@]4(C)[C@H]3CC[C@]12C` [5-α-cholestan-7-en3-β-ol], the CC50 (in the series with HepG2.2.15 cells; in series [1]) was over 100 µM in each case.

Consider `C[C@@H]1O[C@@H](Oc2c(-c3cc(O)c(O)c(O)c3)oc3cc(O)cc(O)c3c2=O)[C@H](O)[C@H](O)[C@H]1O` [MyrG, myricetin rhamnoside], for which the CC50 (with HepG2.2.15 cells; in series [1]) was over 100 µM each time. The half-maximal effective concentration (EC50) in the series on Hepatitis B virus (HBV) is 0.015 µM.

As for `C[C@@H]1O[C@@H](OC[C@H]2O[C@H](Oc3c(-c4cc(O)c(O)c(O)c4)oc4cc(O)cc(O)c4c3=O)[C@H](O)[C@@H](O)[C@H]2O)[C@H](O)[C@H](O)[C@H]1O` [MyrGG, myricetin-3-α-O-ramnosil (1→6)-α-galactoside], the CC50 (in the series on HepG2.2.15 cells; in series [1]) was over 100 µM in each case. Further, the half-maximal effective concentration (EC50) in the series with Hepatitis B virus (HBV) came to 12 µM.

As for `COc1ccc(-c2oc3c(OC)c(OC)c(OC)c(O)c3c(=O)c2OC)cc1O` [PMF, 5,3'-dihydroxy-3,6,7,8,4'-pentamethoxyflavone], the “Plaque forming units, Polio virus” value in series [2] (0.0001 µM) is 91 PFU and 92 PFU and 89 PFU; in series [2] (0.001 µM), 81 PFU and 80 PFU and 78 PFU; in series [2] (0.01 µM), 45 PFU and 41 PFU and 48 PFU; in series [2] (0.1 µM) it was 11 PFU and 16 PFU and 10 PFU. The EC50 in series [2] turned out to be 1 ± 0.05 µM; with Hepatitis B virus (HBV) (setting [6]) it was 0.001 µM; in series [5], 6.8 ± 0.2 µM. Further, the inhibition at 0.0001 µM in series [2] (0.0001 µM) amounted to 0.1%; in series [5] (0.0001 µM), 3.14%. Besides, the inhibition at 0.001 µM in series [2] (0.001 µM) was 11.5%; in series [5] (0.001 µM), 21.5%. Also, the inhibition at 0.01 µM turned out to be 50.4% in series [2] (0.01 µM) and 29.9% in series [5] (0.01 µM). The inhibition at 0.1 µM in series [2] (0.1 µM) was found to be 86.3%; in series [5] (0.1 µM), 44.1%. Also, the inhibition at 1 µM in series [2] is 97.8%; in series [5] (1 µM) it was 64.9%. Further, the CC50 in “in vitro [3]” is 10 ± 0.1 µM; in “in vitro [4]” it was over 100 µM. Besides, the “Plaque forming units, Herpes simplex virus” value is 98 PFU and 91 PFU and 90 PFU in series [5] (0.0001 µM); 82 PFU and 68 PFU and 76 PFU in series [5] (0.001 µM); 68 PFU and 73 PFU and 61 PFU in series [5] (0.01 µM); 48 PFU and 58 PFU and 55 PFU in series [5] (0.1 µM); 34 PFU and 30 PFU and 37 PFU in series [5] (1 µM). For the same compound, the inhibition at 10 µM in series [5] came out at 90%.

`COc1ccc(-c2oc3cc(OC)c(OC)c(O)c3c(=O)c2OC)cc1OC` [PMF-OH, 5-hydroxy-3,6,7,3',4'-pentamethoxyflavone]: the “Plaque forming units, Polio virus” value is 92 PFU and 95 PFU and 90 PFU in series [2] (0.0001 µM); 76 PFU and 70 PFU and 73 PFU in series [2] (0.001 µM); 42 PFU and 40 PFU and 48 PFU in series [2] (0.01 µM); 23 PFU and 20 PFU and 26 PFU in series [2] (0.1 µM). In addition, the EC50 in series [2] worked out at 1.1 ± 0.03 µM; in the series on Hepatitis B virus (HBV) (setting [6]), 0.098 µM; in series [5] it was 5.9 ± 0.1 µM. Also, the inhibition at 0.0001 µM in series [2] (0.0001 µM) is 0.1%; in series [5] (0.0001 µM), 1.4%. Further, the inhibition at 0.001 µM in series [2] (0.001 µM) worked out at 18.9%; in series [5] (0.001 µM), 13.9%. Also, the inhibition at 0.01 µM in series [2] (0.01 µM) came out at 51.9%; in series [5] (0.01 µM), 24%. Moreover, the inhibition at 0.1 µM was determined as 74.4% in series [2] (0.1 µM) and 40.3% in series [5] (0.1 µM). For the same compound, the inhibition at 1 µM in series [2] came to 96.3%; in series [5] (1 µM) it was 91.3%. The CC50 in the series “in vitro [3]” is 10 ± 0.58 µM; in the series “in vitro [4]” it was over 100 µM. Besides, the “Plaque forming units, Herpes simplex virus” value in series [5] (0.0001 µM) was 96 PFU and 98 PFU and 90 PFU; in series [5] (0.001 µM) it was 80 PFU and 82 PFU and 86 PFU; in series [5] (0.01 µM), 76 PFU and 73 PFU and 70 PFU; in series [5] (0.1 µM) it was 67 PFU and 55 PFU and 50 PFU; in series [5] (1 µM) it was 10 PFU and 5 PFU. In series [5], the inhibition at 10 µM turned out to be 60%.

For `C=C(C)C1CCC2(C)CCC3(C)C(=CCC4C5(C)CCC(O)C(C)(C)C5CCC43C)C12` (stereo not drawn) [Upa-12,20(29)-dien-3-ol, lupa-12,20(29)-dien-3-ol], the CC50 (with HepG2.2.15 cells; in series [1]) was over 100 µM each time.

As for marcetol, the CC50 (in the series on HepG2.2.15 cells; in series [1]) was over 100 µM each time.
